In test [1] the target is T1, human src SH2 domain (Homo sapiens, UniProt P12931).
T1 construct: made in house; host or cells: E. coli AR120
Nature of the test: ELISA-based SH2 domain / pY peptide binding assay, src SH2 domain. The method, then:
(§1) The inhibitory activity of compounds at the different human SH2 domains was determined in vitro using SH2 domains expressed as fusion proteins in E. coli. The SH2 domains used herein were the human forms of the src SH2 domain, Grb2 SH2 domain, lck SH2 domain, fyn SH2 domain, SH-PTP2 SH2 domain, p85 SH2 domain and hcp SH2 domain.
The fusion proteins containing the src, lck and hcp SH2 domains were expressed as the general sequence: DET1-DET2-spacer-ek-SH2, where DET1, DET2, spacer, ek and SH2 are as described below. DET1 ("defined epitope tag 1") (SEQ ID NO: 1) is an 11 amino acid sequence found in the Human Immunodeficiency Virus Type 1 (HIV-1) envelope protein gp120 (or gp160). Monoclonal antibodies to various epitopes of HIV-1 gp120 (or gp 160) are known in the art, see, for example U.S. Patent 5,166,050. One preferred example is monoclonal antibody 178.1 (see, e.g., Thiriart et al., J. Immunol., 143:1832-1836 (1989)), which was prepared by immunization of mice with a yeast-expressed HIV-1 gp160 molecule from strain BH10 (Ratner et al., Nature, 313:277-284 (1985)). This tag was used for detection of expression (by Western blot), for purification of the protein (by affinity chromatography), and for configuring assays in which the fusion protein was captured or immobilized using the 178.1 antibody. DET2 is a hexa-histidine sequence tag (SEQ ID NO: 2) which binds to nickel-containing resins and was used for purification purposes. Spacer (SEQ ID NO: 3) was utilized to design a BamH1 restriction site at the indicated position of the construct. The term -ek-refers to a recognition sequence (SEQ ID NO: 4) for the enterokinase protease which provides for the optional removal of the tags from the SH2 domain, thus producing an SH2 domain that contains no extraneous amino acids. SH2 domains which contain no extraneous amino acids are preferable to tagged protein for crystallography studies. SH2 refers to the SH2 domains of different proteins.
Procedure 2: Cloning, expression and purification of human src SH2 domain containing tags and an enterokinase proteolytic cleavage site (DET1-DET2-spacer-ek-src SH2).
A DNA sequence encoding protein ek-src SH2 was PCR amplified from a cDNA clone containing the human src gene (c-src SH2 DNA sequence identical to that described in Takeya,T. and Hanafusa, H, 1983 Cell 32:881-890) using the following primers: [formula]
The PCR product was digested with BamHI and XbaI, followed by isolation of the digested fragment on an agarose gel. The fragment was ligated into BamHI-XbaI-digested expression vector containing the tagged chicken src gene DET1-DET2-spacer-SH2 described in Procedure 1 above. In that vector, the BamHI site is located between the coding regions for DET2 and SH2, and the XbaI site is located after the 3' end of the SH2 coding region. The ligation reaction was used to transform E. coli MM294cI^+. The construct DET1-DET2-spacer-ek-src SH2 was confirmed by DNA sequencing (SEQ ID NO: 5) and induced in E. coli strain AR120 as described in Procedure 1 above. A Coomassie-Blue-stained, Western-blot-positive induced protein band with an apparent molecular weight of 16,000 was observed after nalidixic acid induction.
Cells were lysed at neutral pH by sonication in the presance of lysozyme. After centrifugation, the soluble extract was chromatographed on a Ni^++NTA column. After washing the column with equilibration buffer (Tris buffer pH 8 containing 0.5 M Nacl) and the same buffer containing 15 mM imidazole, the protein was eluted in highly purified form with 25 mM imidazole in equilibration buffer.
The binding assays for the SH2 domains and pY peptides were performed in an ELISA-based 96 well plate assay. […]
(In general: ELISA stands for enzyme-linked immunosorbent assay.)

Test [2] concerns the target T2, human lck SH2 domain (Homo sapiens, UniProt P06239).
T2 construct: made in house; host or cells: E. coli AR120
Briefly: ELISA-based SH2 domain / pY peptide binding assay, lck SH2 domain. The settings on record: inhibition of binding of 0.1 uM biotinylated pY peptide to SH2 domain fusion protein. The method, then: as §1
The fusion proteins containing the src, lck and hcp SH2 domains were expressed as the general sequence: DET1-DET2-spacer-ek-SH2, where DET1, DET2, spacer, ek and SH2 are as described below. DET1 ("defined epitope tag 1") (SEQ ID NO: 1) is an 11 amino acid sequence found in the Human Immunodeficiency Virus Type 1 (HIV-1) envelope protein gp120 (or gp160). Monoclonal antibodies to various epitopes of HIV-1 gp120 (or gp 160) are known in the art, see, for example U.S. Patent 5,166,050. One preferred example is monoclonal antibody 178.1 (see, e.g., Thiriart et al., J. Immunol., 143:1832-1836 (1989)), which was prepared by immunization of mice with a yeast-expressed HIV-1 gp160 molecule from strain BH10 (Ratner et al., Nature, 313:277-284 (1985)). This tag was used for detection of expression (by Western blot), for purification of the protein (by affinity chromatography), and for configuring assays in which the fusion protein was captured or immobilized using the 178.1 antibody. […]

Usually Ki stands for a dissociation constant, usually derived from enzyme kinetics or from competition with a known ligand. In general, IC50 refers to the point on the concentration scale where inhibition reaches its midpoint. Low values mean greater potency, high ones weaker potency.

Some results are limits rather than exact numbers.

T1 sequence (P12931 148-251): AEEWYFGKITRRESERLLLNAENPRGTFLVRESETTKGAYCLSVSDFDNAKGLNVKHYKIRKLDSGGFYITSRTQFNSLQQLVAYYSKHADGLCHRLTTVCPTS
T2 sequence (P06239 127-224 limits assumed): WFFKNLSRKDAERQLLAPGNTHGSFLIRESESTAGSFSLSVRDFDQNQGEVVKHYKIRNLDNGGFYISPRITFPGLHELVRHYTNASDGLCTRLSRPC

Take `CCCCCCNC(=O)[C@H]1CC[C@H](CNC(=O)c2ccc(C(=O)c3ccc(C(=O)O)cc3)cc2)CC1` [Compound 6, 4-carboxy-benzophenone-4-carboxamido-trans-4-methyl-cyclohexyl-N-hexyl carboxamide]: the Ki in test [1] (Ki calculated from IC50 with the expanded equation) was 13 µM. The IC50 in test [1] (inhibition of binding of 0.1 uM biotinylated pY peptide to SH2 domain fusion protein) was 20 µM; in test [2], over 300 µM.

The record behind these values is patent EP0728482A2, “Use of hcp specific compounds to enhance erythropoiesis” (SMITHKLINE BEECHAM CORPORATION, priority 1995, dated 1996).
